The text below walks through data of ChEMBL document CHEMBL3886170, “Pyrrolo[3,2-c]pyridine tropomyosin-related kinase inhibitors” (2015).

The structures appear in SMILES notation.

For this experiment, the target named is High affinity nerve growth factor receptor (Homo sapiens, UniProt P04629). As to the kind of experiment: HTRF Assay: Isolated TRK Enzyme assays use the HTRF KinEASE-TK kit (Cisbio Cat#62TK0PEJ) with recombinant His-tagged cytoplasmic domains of each TRK receptor sourced from Invitrogen (see table below). […] A standard curve using the compound of Example 135 disclosed in WO2005/116035 of 150 uM is also prepared on each test plate. High percentage effect (HPE) is defined by 150 uM. A general note: TR-FRET usually uses a lanthanide donor and a delayed reading to cut background.
High affinity nerve growth factor receptor, sequence (P04629 whole entry, the tested form may be a part): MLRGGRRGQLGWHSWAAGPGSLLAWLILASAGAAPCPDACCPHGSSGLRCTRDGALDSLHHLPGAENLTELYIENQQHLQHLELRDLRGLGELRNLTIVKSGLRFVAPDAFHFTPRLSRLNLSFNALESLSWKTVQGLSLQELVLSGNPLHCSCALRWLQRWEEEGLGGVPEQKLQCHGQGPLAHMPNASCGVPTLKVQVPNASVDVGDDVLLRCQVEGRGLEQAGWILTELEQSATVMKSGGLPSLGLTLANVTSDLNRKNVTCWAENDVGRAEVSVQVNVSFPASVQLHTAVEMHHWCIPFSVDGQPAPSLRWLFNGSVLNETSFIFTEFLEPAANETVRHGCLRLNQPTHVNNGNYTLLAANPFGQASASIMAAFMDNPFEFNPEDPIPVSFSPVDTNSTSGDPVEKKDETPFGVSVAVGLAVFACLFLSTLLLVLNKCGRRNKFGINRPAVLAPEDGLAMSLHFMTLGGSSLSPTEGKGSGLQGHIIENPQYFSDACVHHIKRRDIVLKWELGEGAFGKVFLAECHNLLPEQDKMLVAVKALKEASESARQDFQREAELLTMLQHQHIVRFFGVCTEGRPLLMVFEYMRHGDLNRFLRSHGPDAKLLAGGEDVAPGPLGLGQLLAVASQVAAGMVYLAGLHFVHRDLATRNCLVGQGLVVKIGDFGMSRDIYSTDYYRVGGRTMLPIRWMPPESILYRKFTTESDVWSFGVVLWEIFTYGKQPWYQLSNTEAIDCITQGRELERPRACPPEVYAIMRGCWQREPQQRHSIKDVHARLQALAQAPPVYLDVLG

A word on the IC50: it is the concentration that gives 50% inhibition. `CC(C)(CO)n1cc(C(=O)c2cncc(NC(=O)Cc3ccc(C#N)cc3)c2)c2cnccc21`: the IC50 is 9.54 nM.
In the case of `CC(C)(CO)n1cc(C(=O)c2cncc(NC(=O)Cn3cc(C4CC4)nn3)c2)c2cnccc21` it was 12.4 nM.
As for `CC(C)(CO)n1cc(C(=O)c2cc(NC(=O)Cn3cc(C(F)(F)F)nn3)ccn2)c2cnccc21`, the concentration for half-maximal inhibition (IC50) came out at 79.3 nM.
For the compound `CC(C)(CO)n1cc(C(=O)c2cncc(NC(=O)Cc3ccc(Cl)cc3)c2)c2cncc(F)c21`, the half-maximal inhibitory concentration (IC50) came out at 6.53 nM.
